Legend:
[1] = tested on: cultured cortical neurons from rat brains; test: Ionomycin-induced cell death of cultured cortical neurons (calcein AM / propidium iodide); type: cell-based
From the text: (§1) In the first experiment, cell death of the neurons was induced by exposing the culture to ionomycin. In the second experiment, cell death was induced by exposing the neurons to 30 and 60 mJ/cm^2 of UV light. The exposure to either ionomycin or UV light caused calpain I to be activated because of ionomycin-mediated calcium flux or through UV-induced receptors, channels or pore-like structures. Calcein acetoxymethyl ester was used as indicator of live neuron cells while propidium iodide was used an indicator of dead neuron cells.
In the first experiment, ten Samples were prepared. Sample 1 was a control Sample and included the cultured cortical neurons only. A baseline for the average percentage of cell death was determined to be 19%. In Sample 2, 0.4 μM ionomycin was added to the cultured neuron cells to activate calpain I. No LSEAL was added to these Samples. The addition of ionomycin to these Samples caused the percentage of dead cells to more than triple to an average of 68%. Sample 3 was the same as Sample 2 except that 0.00001 micromolar of LSEAL was added before the ionomycin was added. The percentage of dead cells averaged of 106% of no LSEAL. Sample 4 was the same as Sample 3 except that 0.0001 micromolar of LSEAL was added. The percentage of cell death was 83% of no LSEAL. Sample 5 was the same as Sample 4 except that 0.001 micromolar LSEAL was added. The percentage of cell death was 63% of no LSEAL. Sample 6 was the same as Sample 5 except that 0.01 micromolar LSEAL was added. The percentage of cell death was 61% of no LSEAL. Sample 7 was the same as Sample 6 except that 0.1 micromolar LSEAL was added. The percentage of cell death was 57% of no LSEAL. Sample 8 was the same as Sample 7 except that 1.0 micromolar LSEAL was added. The percentage of cell death was 48% of no LSEAL. Sample 9 was the same as Sample 8 except that 10.0 micromolar LSEAL was added. The percentage of cell death was 35% of no LSEAL. Sample 10 was the same as Sample 9 except that 100 micromolar LSEAL was added. The percentage of cell death was 33% of no LSEAL. […] The results are summarized in Table 1 below and the results are graphically illustrated in FIG. 1

[2] = tested on: cultured cortical neurons from rat brains; test: UV light-induced cell death of cultured cortical neurons; type: cell-based; conditions: for Dead Cells / Live Cells: cell count
From the text: as §1
In the second experiment, cell death of the cultured cortical neurons was induced by UV light. […] The percentage of cell death was 18%. Sample 14 is the same as Sample 11, except for the addition of 100 μM LSEAL to the culture. The percentage of cell death was reduced from 18% to 14%. Sample 12 was exposed to 30 mJ/cm^2 of UV light. The percentage of cell death was 58%. The inclusion of the LSEAL before exposure reduced the percentage of cell death to 25%. See Sample 15. […] The data for the experiment is set forth below in Tables 3 and 4, and is graphically illustrated in FIG. 2.

calpain I = biological target: T1, calpain I (Homo sapiens, UniProt P07384); test: Tau protein degradation by calpain I; type: biochemical; conditions: 100 μM LSEAL; FIG. 3
T1 sequence (P07384 1-714): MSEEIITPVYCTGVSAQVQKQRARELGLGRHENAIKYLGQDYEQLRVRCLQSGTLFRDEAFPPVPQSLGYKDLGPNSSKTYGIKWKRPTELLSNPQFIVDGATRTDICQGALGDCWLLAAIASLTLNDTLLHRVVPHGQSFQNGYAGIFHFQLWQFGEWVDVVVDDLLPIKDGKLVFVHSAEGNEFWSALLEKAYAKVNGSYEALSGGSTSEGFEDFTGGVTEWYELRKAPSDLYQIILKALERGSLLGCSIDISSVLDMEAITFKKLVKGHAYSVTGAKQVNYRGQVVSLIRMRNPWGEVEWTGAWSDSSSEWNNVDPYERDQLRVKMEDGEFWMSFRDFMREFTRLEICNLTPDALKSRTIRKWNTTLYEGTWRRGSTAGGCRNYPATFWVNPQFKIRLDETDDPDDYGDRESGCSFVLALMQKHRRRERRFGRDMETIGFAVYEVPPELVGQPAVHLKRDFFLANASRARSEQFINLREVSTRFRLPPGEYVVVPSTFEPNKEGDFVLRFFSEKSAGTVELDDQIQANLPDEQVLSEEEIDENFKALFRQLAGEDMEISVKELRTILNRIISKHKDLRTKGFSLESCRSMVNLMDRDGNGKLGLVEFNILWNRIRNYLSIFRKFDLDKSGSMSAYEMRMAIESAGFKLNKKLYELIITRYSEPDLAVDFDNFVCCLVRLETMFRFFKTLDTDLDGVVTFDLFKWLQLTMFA
T1 sequence (P04632 1-268 partner): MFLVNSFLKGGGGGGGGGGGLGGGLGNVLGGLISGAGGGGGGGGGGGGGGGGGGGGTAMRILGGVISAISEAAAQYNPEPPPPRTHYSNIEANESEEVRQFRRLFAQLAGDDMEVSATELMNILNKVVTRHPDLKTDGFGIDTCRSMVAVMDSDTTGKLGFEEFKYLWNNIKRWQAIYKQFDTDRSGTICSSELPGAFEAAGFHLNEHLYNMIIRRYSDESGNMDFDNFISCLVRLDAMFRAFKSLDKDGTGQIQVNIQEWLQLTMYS
Protocol: Another experiment was conducted to show the effect of the proteins of the present invention on the tau protein. The tau protein is a microtubule-associated protein (MAP). Tau is a well-described calpain I substrate.

[3] = 0 mJ/cm^2 UV light, LSEAL (Sample 14)
[4] = 30 mJ/cm^2 UV light, LSEAL (Sample 15)
[5] = 60 mJ/cm^2 UV light, LSEAL (Sample 16)

Substance: Leu-Ser-Glu-Ala-Leu (LSEAL; listed as Homo sapiens)
- Percentage Average cell death (ratioed to 0 LSEAL) ([1]; 0.00001 micromolar LSEAL added before 0.4 μM ionomycin (Sample 3)): 106%
- Percentage Average cell death (ratioed to 0 LSEAL) ([1]; 0.0001 micromolar LSEAL, 0.4 μM ionomycin (Sample 4)): 83%
- Percentage Average cell death (ratioed to 0 LSEAL) ([1]; 0.001 micromolar LSEAL, 0.4 μM ionomycin (Sample 5)): 63%
- Percentage Average cell death (ratioed to 0 LSEAL) ([1]; 0.01 micromolar LSEAL, 0.4 μM ionomycin (Sample 6)): 61%
- Percentage Average cell death (ratioed to 0 LSEAL) ([1]; 0.1 micromolar LSEAL, 0.4 μM ionomycin (Sample 7)): 57%
- Percentage Average cell death (ratioed to 0 LSEAL) ([1]; 1.0 micromolar LSEAL, 0.4 μM ionomycin (Sample 8)): 48%
- Percentage Average cell death (ratioed to 0 LSEAL) ([1]; 10.0 micromolar LSEAL, 0.4 μM ionomycin (Sample 9)): 35%
- Percentage Average cell death (ratioed to 0 LSEAL) ([1]; 100 micromolar LSEAL, 0.4 μM ionomycin (Sample 10)): 33%
- % Dead Cells ([2]; 0 mJ/cm^2 UV light, 100 μM LSEAL (Sample 14), control without LSEAL 18%): 14%
- Dead Cells [2, 3]: 5
- Live Cells [2, 3]: 30
- Dead Cells [2, 4]: 26
- Live Cells [2, 4]: 78
- % Dead Cells ([2]; 30 mJ/cm^2 UV light, LSEAL included before exposure (Sample 15), control without LSEAL 58%): 25%
- Dead Cells [2, 5]: 25
- Live Cells [2, 5]: 56
- % Dead Cells ([2]; 60 mJ/cm^2 UV light, culture containing LSEAL (Sample 16), control without LSEAL 74%): 30%
- Effect on tau degradation by calpain I (calpain I): inhibits degradation
